Legend:
GPR40 [1] = molecular target: T1, GPR40 (Homo sapiens, UniProt O14842); assay: Inositol phosphate accumulation assay (A9_GPR40 cells); assay type: cell-based; design: expressed in transfected cells; host or cells: CHO cells stably transfected with GPR40 and aequorin; conditions: inositol phosphate assay, A9_GPR40 cells, 1 hour; read-out: IP3 EC50
Method: Briefly, the Aequorin assays were performed on doubly stable CHO cells expressing GPR40 and Aequorin DNA. […] The luminescence was recorded over a period of 20 seconds with a Microlumat luminometer (Berthold). […] The inositol phosphate assay was performed on an A9 cell line stably transfected with GPR40 (A9_GPR40). The cells were incubated with different concentrations of compounds and [^3H] inositol accumulation was measured after 1 hour.
An A9 cell line stably transfected with GPR40 (A9_GPR40) was used in IP accumulation assays. A9_GPR40 cells were plated in 96-well plates containing 20,000 cells/well in DMEM containing 10% FBS. After the cells attached to the well surface, the media was replaced with inositol free DMEM containing 10% dialyzed FBS and 1 μCi, mL ^3H-inositol and incubated for 16 hours. Compounds were diluted in HBSS/10 mM LiCl containing a desired amount of HSA and added directly to cells. Following 1 hour incubation at 37° C., the media was replaced with 100 μL of 20 mM formic acid to quench the reaction. 50 μL of the extract was then added to 100 μL of SPA beads, incubated overnight, and measured on a TopCount the following day.

GPR40 [2] = molecular target: T1, GPR40; assay: Cell-based aequorin assay (CHO cells stably expressing GPR40 and aequorin); design: expressed in transfected cells; host or cells: CHO cells stably transfected with GPR40 and aequorin; conditions: activation of human GPR40, CHO cells, 0.01% HSA
Summary of the method: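 CHO cells stably co-expressing GPR40 and aequorin, loaded with coelenterazine (1 ug/mL, 2 h, room temperature) in H/HBSS with 20 mM Hepes and 0.01% fatty acid-free HSA. Serially diluted compounds added; luminescence recorded over 20 s. EC50 from dose-response of maximum relative light units.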

T1 sequence (O14842 whole entry): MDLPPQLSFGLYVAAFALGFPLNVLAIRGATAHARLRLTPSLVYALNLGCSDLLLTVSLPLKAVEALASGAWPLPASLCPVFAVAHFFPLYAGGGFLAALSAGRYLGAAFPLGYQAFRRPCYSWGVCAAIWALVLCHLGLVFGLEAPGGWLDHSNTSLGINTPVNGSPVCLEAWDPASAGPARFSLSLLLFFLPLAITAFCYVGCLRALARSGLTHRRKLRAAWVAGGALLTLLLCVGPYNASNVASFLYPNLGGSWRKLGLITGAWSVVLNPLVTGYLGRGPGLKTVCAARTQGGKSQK

Compound	EC50 (GPR40 [1]) [nM]	EC50 (GPR40 [2]) [nM]
COc1cccc(-c2ccc(COc3cccc([C@H](C)CC(=O)O)c3)cc2C(C)(C)C)c1 (single isomer, unassigned) [Example 47, (3R)-3-(3-(((2-(1,1-Dimethylethyl)-3′-(methyloxy)-1,1′-biphenyl-4-yl)methyl)oxy)phenyl)butanoic acid or (3S)-3-(3-(((2-(1,1-dimethylethyl)-3′-(methyloxy)-1,1′-biphenyl-4-yl)methyl)oxy)phenyl)butanoic acid]	100 to 1000	100 to 1000
C=C(C)[C@H](CC(=O)O)c1cccc(OCc2ccc(-c3cc(OC)ccc3F)c(OCCCC)c2)c1 (single isomer, unassigned) [Example 50, (3S)-3-(3-(((2-(Butyloxy)-2′-fluoro-5′-(methyloxy)-1,1′-biphenyl-4-yl)methyl)oxy)phenyl)-4-methyl-4-pentenoic acid or (3R)-3-(3-(((2-(butyloxy)-2′-fluoro-5′-(methyloxy)-1,1′-biphenyl-4-yl)methyl)oxy)phenyl)-4-methyl-4-pentenoic acid]	1000 to 10000	1000 to 10000
C=CC[C@H](CC(=O)O)c1cccc(OCc2ccc(-c3cc(OC)ccc3F)c(C(C)(C)C)c2)c1 (single isomer, unassigned) [Example 51, (3R)-3-(3-(((2-(1,1-Dimethylethyl)-2′-fluoro-5′-(methyloxy)-1,1′-biphenyl-4-yl)methyl)oxy)phenyl)-5-hexenoic acid or (3S)-3-(3-(((2-(1,1-dimethylethyl)-2′-fluoro-5′-(methyloxy)-1,1′-biphenyl-4-yl)methyl)oxy)phenyl)-5-hexenoic acid]	100 to 1000	100 to 1000
COc1ccc(F)c(-c2ccc(COc3cccc([C@H](C)CC(=O)O)c3)cc2C2=CCCC2(C)C)c1 (single isomer, unassigned) [Example 55, (3R)-3-(3-(((2-(5,5-Dimethyl-1-cyclopenten-1-yl)-2′-fluoro-5′-(methyloxy)-1,1′-biphenyl-4-yl)methyl)oxy)phenyl)butanoic acid or (3S)-3-(3-(((2-(5,5-dimethyl-1-cyclopenten-1-yl)-2′-fluoro-5′-(methyloxy)-1,1′-biphenyl-4-yl)methyl)oxy)phenyl)butanoic acid]	10 to 100	100 to 1000
C=C(C)[C@H](CC(=O)O)c1cccc(OCc2ccc(-c3cccc(OC)c3)c(C(C)(C)C)c2)c1 (single isomer, unassigned) [Example 56, (3S)-3-(3-(((2-(1,1-Dimethylethyl)-3′-(methyloxy)-1,1′-biphenyl-4-yl)methyl)oxy)phenyl)-4-methyl-4-pentenoic acid or (3R)-3-(3-(((2-(1,1-dimethylethyl)-3′-(methyloxy)-1,1′-biphenyl-4-yl)methyl)oxy)phenyl)-4-methyl-4-pentenoic acid]	100 to 1000	100 to 1000
C=CC[C@H](CC(=O)O)c1cccc(OCc2ccc(-c3cccc(OC)c3)c(C(C)(C)C)c2)c1 (single isomer, unassigned) [Example 57, (3R)-3-(3-(((2-(1,1-dimethylethyl)-3′-(methyloxy)-1,1′-biphenyl-4-yl)methyl)oxy)phenyl)-5-hexenoic acid or (3S)-3-(3-(((2-(1,1-dimethylethyl)-3′-(methyloxy)-1,1′-biphenyl-4-yl)methyl)oxy)phenyl)-5-hexenoic acid]	100 to 1000	100 to 1000
CCC[C@H](CC(=O)O)c1cccc(OCc2ccc(-c3cc(OC)ccc3F)c(C3=CCCC3(C)C)c2)c1 (single isomer, unassigned) [Example 59, (3R)-3-(3-(((2-(5,5-Dimethyl-1-cyclopenten-1-yl)-2′-fluoro-5′-(methyloxy)-1,1′-biphenyl-4-yl)methyl)oxy)phenyl)hexanoic acid or (3S)-3-(3-(((2-(5,5-dimethyl-1-cyclopenten-1-yl)-2′-fluoro-5′-(methyloxy)-1,1′-biphenyl-4-yl)methyl)oxy)phenyl)hexanoic acid]	10 to 100	100 to 1000
CCCCOc1cc(COc2cccc([C@H](CCC)CC(=O)O)c2)ccc1-c1cc(OC)ccc1F (single isomer, unassigned) [Example 60, (3R)-3-(3-(((2-(Butyloxy)-2′-fluoro-5′-(methyloxy)-1,1′-biphenyl-4-yl)methyl)oxy)phenyl)hexanoic acid or (3S)-3-(3-(((2-(butyloxy)-2′-fluoro-5′-(methyloxy)-1,1′-biphenyl-4-yl)methyl)oxy)phenyl)hexanoic acid]	100 to 1000	100 to 1000
COc1ccc(F)c(-c2ccc(COc3cccc(C(C)CC(=O)O)c3)cc2/C=C/C(C)(C)C)c1 (single isomer, unassigned) [Example 64.4, (3R)-3-(3-(((2-((1E)-3,3-Dimethyl-1-butenyl)-2′-fluoro-5′-(methyloxy)-1,1′-biphenyl-4-yl)methyl)oxy)phenyl)butanoic acid or (3S)-3-(3-(((2-((1E)-3,3-dimethyl-1-butenyl)-2′-fluoro-5′-(methyloxy)-1,1′-biphenyl-4-yl)methyl)oxy)phenyl)butanoic acid]	10 to 100	100 to 1000
COc1ccc(F)c(-c2ccc(COc3cccc(C(C)CC(=O)O)c3)cc2C2=CCC(C)(C)CC2)c1 (single isomer, unassigned) [Example 64.5, (3R)-3-(3-(((2-(4,4-Dimethyl-1-cyclohexen-1-yl)-2′-fluoro-5′-(methyloxy)-1,1′-biphenyl-4-yl)methyl)oxy)phenyl)butanoic acid or (3S)-3-(3-(((2-(4,4-dimethyl-1-cyclohexen-1-yl)-2′-fluoro-5′-(methyloxy)-1,1′-biphenyl-4-yl)methyl)oxy)phenyl)butanoic acid]	10 to 100	100 to 1000
COc1ccc(F)c(-c2ccc(COc3cccc(C(C)CC(=O)O)c3)cc2CCC(C)(C)C)c1 (single isomer, unassigned) [Example 64.6, (3R)-3-(3-(((2-(3,3-Dimethylbutyl)-2′-fluoro-5′-(methyloxy)-1,1′-biphenyl-4-yl)methyl)oxy)phenyl)butanoic acid or (3S)-3-(3-(((2-(3,3-dimethylbutyl)-2′-fluoro-5′-(methyloxy)-1,1′-biphenyl-4-yl)methyl)oxy)phenyl)butanoic acid]	10 to 100	100 to 1000
COc1ccc(F)c(-c2ccc(COc3cccc(C(C)CC(=O)O)c3)cc2C2CCC(C)(C)CC2)c1 (single isomer, unassigned) [Example 64.7, (3R)-3-(3-(((2-(4,4-Dimethylcyclohexyl)-2′-fluoro-5′-(methyloxy)-1,1′-biphenyl-4-yl)methyl)oxy)phenyl)butanoic acid or (3S)-3-(3-(((2-(4,4-dimethylcyclohexyl)-2′-fluoro-5′-(methyloxy)-1,1′-biphenyl-4-yl)methyl)oxy)phenyl)butanoic acid]	10 to 100	100 to 1000
COc1ccc(F)c(-c2ccc(COc3cccc(C(C)CC(=O)O)c3)c(F)c2C(C)(C)C)c1 (single isomer, unassigned) [Example 64.10, (3R)-3-(3-(((2-(1,1-Dimethylethyl)-2′,3-difluoro-5′-(methyloxy)-1,1′-biphenyl-4-yl)methyl)oxy)phenyl)butanoic acid or (3S)-3-(3-(((2-(1,1-dimethylethyl)-2′,3-difluoro-5′-(methyloxy)-1,1′-biphenyl-4-yl)methyl)oxy)phenyl)butanoic acid]	100 to 1000	100 to 1000
